Assay results: US20260226079A1, “A STRATEGY FOR THE SELECTIVE REMOVAL OF MRI CONTRAST AGENTS” (Portland State University, priority 2023, published 2026)
Marks after values point to notes of the source that are not given here.

Assays:
[1] = 20 MHz and 298 K, comparison value; cited from earlier work
[2] = SPAAC selective interception of GdDO3A-DBCO monoamide chelate on azide terminated PS beads, Gd in supernatant by ICP-MS; settings: for % Gd Remaining: 50° C., 1,000 rpm, 24 hours
Procedure: To address potential stability issues associated with the GdTTHA-Alkyne and azide-PS beads system, tri-acetate mono-amide chelate systems were tested, that may experience fewer experimental difficulties. The initial SPAAC reactions were carried out with GdDO3A-DBCO monoamide chelate and azide terminated bead (FIG. 13). The Gd^3+ concentration was temporally monitored in the supernatant to gain a sense of reaction kinetics and optimal reaction times. To avoid mechanical stirring, a temperature-controlled thermomixer was used which mixed through agitation and was capable of batch testing. And the reaction was analyzed by ICP-MS.
All experiments were performed on a 100 mg bead scale with 0.5 equivalents of GdDO3A-DBCO monoamide chelate in water (1 mL) agitated at 1,000 rpm and 50° C. […] were selected: 3 minutes, 3 hours, 6 hours, 9 hours and 24 hours. The reactions were stopped at their respective time point, the sample was centrifuged and the supernatant was decanted and filtered. The beads were washed and centrifuged three times before the filtered supernatant was freeze dried and digested in HNO3 for ICP-MS analysis.
The effect of pH at relevant pH ranges of urine (~4.5-8) on the efficiency of Gd removal was investigated. Additionally, the role of an organic cosolvent was investigated to determine whether the aqueous medium is a limiting factor in efficiency. A pH range of 5-9 was tested with 1:1 v:v DMSO:H2O at 50° C. stirring at 1,000 rpm for 24 hours. The reaction mixtures were centrifuged, and the supernatant was decanted and filtered. The beads were washed and centrifuged in triplicate and the supernatants were freeze dried and digested for ICP-MS analysis, data summarized below in Table 1.
A multivariate approach was designed to establish the interaction between various levels of cosolvent volume, reaction time and temperature. The volume of DMSO was lowered with the hope of identifying other contributing factors that would lead to an enhanced outcome using a minimal amount of organic cosolvent. Additionally, the temperature ranged from 25° C. to 50° C. and the reaction time was assessed over 0.5 hours and 24 hours, and at pH 7. The scale of the beads and GdDO3A-DBCO monoamide chelate remained the same as previous trials at a 100 mg scale with 0.5 equivalents of GBCA while mixing at 1,000 rpm. The beads were centrifuged, washed, and digested in nitric acid for ICP-MS analysis using the methods described previously, results summarized below in Table 2.
Following the suboptimal results from previous trials with a smaller volume of DMSO cosolvent, the range of added cosolvent was increased to 50% v:v. Additionally, a simulated urine matrix, Surine™, was added to test if there were any significant effects from any urine constituents on the reaction efficiency. The experiments were run with variable reaction times, matrix and percentage DMSO at pH 7 and 37° C.

[3] = Temperature-dependent 17O R2p transverse relaxation rate (67.8 MHz, 11.74 T) and fitting; format: physicochemical; settings: for τM, water residence lifetime / AO/h / Δ HM: fitted; for τM, water residence lifetime: pH 7.0 (GdDO3A-N3-monoamide), pH 6.8 (GdDO3A-DBCO-monoamide); for AO/h / Δ HM: pH 7.0 (N3), pH 6.8 (DBCO)
Procedure: FIG. 18 is a plot illustrating the GdDO3A-DBCO monoamide temperature-dependent R2p relaxation rate of ^17O measured at 67.8 MHz (11.74 T) pH 6.8, and a Gd^3+ concentration of 6.5 mM.
FIG. 20 is a plot illustrating the GdDO3A-azido monoamide temperature-dependent R2p relaxation rate of ^17O measured at 67.8 MHz (11.74 T) pH 7.0, and a Gd^3+ concentration of 8.5 mM.
(§1) Previous work by the inventors has shown that chelates functionalized with bulky aromatic groups have the propensity to self-associate in solution. […] The most common methods to determine the physico-chemical properties described by SBM theory are through fittings of experimental data obtained from the reduced ^17O transverse relaxation rate, R2p, as a function of temperature and relaxivity, ri, as a function of proton Larmor frequency i.e. nuclear magnetic resonance dispersion (NMRD) profiles.
Analysis of the reduced transverse relaxation rate constant of ^17O (R2p) as a function of temperature is the most common experimental technique to determine water residence lifetime, τM. The function typically resembles a bell curve where the inflection point temperature is an indicator of water exchange kinetics. The experiments were performed at a pH of 6.8 and a Gd^3+ concentration of 6.5 mM. Precipitation was observed below 295 K. The ^17O curve reached an inflection point at about 310 K, and the fitted value of τM was 545 ns, comparatively slow in the context of achieving high relaxivities but fast enough that exchange is in the fast exchange regime and rl is sensitive to changes in molecular tumbling, […].
Unsurprisingly, the shape is nearly identical to the DBCO-containing counterpart; both are monoamides and a similar water exchange rate would be expected. In this case, the water residence lifetime time constant (τM) was equivalent to the DBCO ligand at 545 ns.

[4] = 1H NMRD relaxivity profiles and parametric fitting (SBM / Lipari-Szabo); format: physicochemical; parameters: ^298D: unit not given here; settings: for ^22r1 (298K), relaxivity: 20 MHz; for ^22r1 (298K), relaxivity / ER / Δ^2 / τRG, global rotational correlation time constant / τV: pH 7.0 (N3), pH 6.8 (DBCO); for EV / ^298D / a / q / r: fixed during fitting
Procedure: FIG. 19 is a plot illustrating the GdDO3A-DBCO monoamide ^1H NMRD profiles at 283 (blue, top line), 298 (black, middle line) and 310 K (red, lower line), measured at pH 6.8, and a Gd^3+ concentration of 1.32 mM.
FIG. 21 is a plot illustrating the GdDO3A-azido monoamide ^1H NMRD profiles at 283 (blue, top line), 298 (black, middle line) and 310 K (red, lower line), measured at pH 7.0.
as §1
The NMRD profiles of GBCAs are used to characterize several important physico-chemical parameters described by SBM theory. The most influential parameter which affects the shape of an NMRD curve is the rotational correlation time constant (τR) of the complex. Macromolecular species which tumble slowly impart a positive impact on relaxivity at all fields, but particularly at high fields presented as a characteristic “hump” in the 10-60 MHz region, distinct from quickly tumbling chelates in which relaxivity continues to decrease with increasing field strength. The molecular weight of the GdDO3A-DBCO monoamide would not be considered a large macromolecular structure; any indication of a slowly tumbling complex would be indicative of an aggregate species which we hypothesized as the self-associating chelate. As shown below in FIG. 19, relaxivity is quite high in low field regions where electronic spin relaxation contributes, followed by a characteristic dispersion around 1 MHz when the contribution drops off. There is a “hump” around 20 MHz which is indicative of a slowly tumbling species, consistent with a self-associating chelate. This macromolecular structure is the source of a rather high relaxivity of 7.1 mM^−1s^−1 (20 MHz, pH 6.8, 298 K) in comparison to most clinical agents which remain in the 4 mM^−1 s^−1-5 mM^−1s^−1 range.
The global and local rotational correlation time constants were 375 ps and 107 ps, respectively. […] This further corroborated the presence of a self-association which led to a decrease in the efficiency observed in selective interception trials.
The dispersion at 1-10 MHz corresponded to a typical drop-off of the electronic spin relaxation contribution, followed by continued decrease in relaxivity with increasing field strength. There was no evidence of a slowly tumbling structure which was reflected in a standard parametric fitting procedure with one discrete rotational contribution.

[5] = SPAAC selective interception of GdDO3A-azido monoamide chelate on DBCO-PS beads, Gd by ICP-MS; settings: pH 7, 37° C.
Procedure: The GdDO3A-azido monoamide chelate and DBCO-PS beads shown in FIG. 15 were utilized in a similar experiment described previously. Due to the expensive DBCO starting material, the beads were generated on small scales. Accordingly, the scales of the experiments were reduced to 50 mg bead starting material and 0.5 equivalents of GBCA consistent with the loading capacity determined for each batch of DBCO-PS. All other conditions remained constant (1 mL reaction volume, 37° C., 1,000 rpm mixing at pH 7). Samples were prepared for ICP-MS analysis using the same method as previously described with fewer dilutions. The experiments were run with variable reaction times, matrix, and percentage DMSO.

[6] = fitted, Lipari-Szabo approach, pH 6.8

In the case of O=C([O-])CN1CCN(CC(=O)[O-])CCN(CC(=O)O)CCN(CC(=O)[O-])CC1.[Gd+3] [GdDOTA], the relaxivity [1] is given as 4.5 mM⁻¹ s⁻¹.

In the case of O=C([O-])CN1CCN(CC(=O)[O-])CCN(CC(=O)NCCC(=O)N2Cc3ccccc3C#Cc3ccccc32)CCN(CC(=O)[O-])CC1.[Gd+3] [GdDO3A-DBCO monoamide], the “Gd Remaining (%)” value ([2]; Entry 1: 0.5 hr, Water, 0% DMSO, pH 7, 37° C.) is reported as 27%, the “Gd Remaining (%)” value ([2]; Entry 1: cosolvent 0 μL, 25 °C, 0.5 hr, pH 7) is reported as 71% and the “Gd Remaining (%)” value ([2]; Entry 2: 0.5 hr, Water, 50% DMSO, pH 7, 37° C.) is reported as 28%. For the same molecule, the “Gd Remaining (%)” value ([2]; Entry 2: cosolvent 0 μL, 25 °C, 24 hr, pH 7) was 70%, the “Gd Remaining (%)” value ([2]; Entry 3: 8 hr, Water, 0% DMSO, pH 7, 37° C.) was 27% and the “Gd Remaining (%)” value ([2]; Entry 3: cosolvent 100 μL, 25 °C, 0.5 hr, pH 7) was 68%. The “Gd Remaining (%)” value ([2]; Entry 4: 8 hr, Water, 50% DMSO, pH 7, 37° C.) was 18%, the “Gd Remaining (%)” value ([2]; Entry 4: cosolvent 100 μL, 25 °C, 24 hr, pH 7) was 69% and the “Gd Remaining (%)” value ([2]; Entry 5: 0.5 hr, Surine, 0% DMSO, pH 7, 37° C.) was 28%. The “Gd Remaining (%)” value ([2]; Entry 5: cosolvent 0 μL, 50 °C, 0.5 hr, pH 7) was 67%, the “Gd Remaining (%)” value ([2]; Entry 6: 0.5 hr, Surine, 50% DMSO, pH 7, 37° C.) was 29% and the “Gd Remaining (%)” value ([2]; Entry 6: cosolvent 0 μL, 50 °C, 24 hr, pH 7) was 65%. For the same molecule, the “Gd Remaining (%)” value ([2]; Entry 7: 8 hr, Surine, 0% DMSO, pH 7, 37° C.) was 30%, the “Gd Remaining (%)” value ([2]; Entry 7: cosolvent 100 μL, 50 °C, 0.5 hr, pH 7) was 69% and the “Gd Remaining (%)” value ([2]; Entry 8: 8 hr, Surine, 50% DMSO, pH 7, 37° C.) was 20%. For the same molecule, the “Gd Remaining (%)” value ([2]; Entry 8: cosolvent 100 μL, 50 °C, 24 hr, pH 7) was 67%, the “second order rate constant of interception reaction” value ([2]; extrapolated from integrated second order rate law, FIG. 14) was 48.4 M⁻¹ s⁻¹ and the “% Gd Remaining” value ([2]; pH 5, 1:1 v:v DMSO:H2O) was 1.64%. The “% Gd Remaining” value ([2]; pH 7, 1:1 v:v DMSO:H2O) was 2%, the “% Gd Remaining” value ([2]; pH 9, 1:1 v:v DMSO:H2O) was 1.6% and the “τM, water residence lifetime” value [3] was 545 ns. The AO/h [3] was −3.0 10^6 rad s^−1, the “Δ HM” value [3] was 11 kcal/mol and the “inflection point of 17O R2p curve” value ([3]; pH 6.8, Gd^3+ 6.5 mM) was “about 310 K”. The “temperature below which precipitation was observed” value ([3]; pH 6.8, Gd^3+ 6.5 mM) was “below 295 K”, the “^22r1 (298K), relaxivity” value [4] was 7.1 mM⁻¹ s⁻¹ and the “aggregate rotates more slowly than the discrete chelate (global vs local rotation), fold” value ([4]; Lipari-Szabo fitting) was “over 3 ×”. The “S^□” value [4, 6] was 0.36, the “τRL, local rotational correlation time constant” value [4, 6] was 107 ps and the ER ([4]; fitted) was 4.78 kcal/mol. For the same molecule, the “Δ^2” value ([4]; fitted) was 3.5 10^19 s^−2, the “τRG, global rotational correlation time constant” value ([4]; fitted) was 375 ps and the τV ([4]; fitted) was 13 ps. For the same molecule, the EV [4] was 1.0^a kJ mol^−1, the “^298D” value [4] was 2.24 and the a [4] was 4.0^a Å. The q [4] was 1^a and the r [4] was 3.0^a Å.

With [Gd+3].[N-]=[N+]=NCCCNC(=O)CN1CCN(CC(=O)[O-])CCN(CC(=O)[O-])CCN(CC(=O)[O-])CC1 [GdDO3A-azido monoamide] the “Gd Remaining (%)” value ([5]; Entry 1: 0.5 hr, Water, 0% DMSO) was 39%, the “Gd Remaining (%)” value ([5]; Entry 2: 0.5 hr, Water, 50% DMSO) was 36% and the “Gd Remaining (%)” value ([5]; Entry 3: 8 hr, Water, 0% DMSO) was 40%. For the same molecule, the “Gd Remaining (%)” value ([5]; Entry 4: 8 hr, Water, 50% DMSO) was 35%, the “Gd Remaining (%)” value ([5]; Entry 5: 0.5 hr, Surine, 0% DMSO) was 27% and the “Gd Remaining (%)” value ([5]; Entry 6: 0.5 hr, Surine, 50% DMSO) was 37%. The “Gd Remaining (%)” value ([5]; Entry 7: 8 hr, Surine, 0% DMSO) was 39%, the “Gd Remaining (%)” value ([5]; Entry 8: 8 hr, Surine, 50% DMSO) was 38% and the “τM, water residence lifetime” value [3] was 545 ns. The AO/h [3] was −3.2 10^6 rad s^−1, the “Δ HM” value [3] was 11 kcal/mol and the “^22r1 (298K), relaxivity” value [4] was 4.7 mM⁻¹ s⁻¹. For the same molecule, the ER ([4]; fitted) was 4.28 kcal/mol, the “Δ^2” value ([4]; fitted) was 5.7 10^19 s^−2 and the “τRG, global rotational correlation time constant” value ([4]; fitted) was 70 ps. The τV ([4]; fitted) was 8.4 ps, the EV [4] was 1.0^a kJ mol^−1 and the “^298D” value [4] was 2.24. The a [4] was 4.0^a Å, the q [4] was 1^a and the r [4] was 3.0^a Å.
